Measured values taken from article PMC10428001 (Cancer research, 2022).

Columns and labels:
[1] = tested on: HER2 mutant lung cancer; settings: cited from earlier work
[2] = tested on: Ba/F3 cells WT EGFR (+ rhEGF); assay: Ba/F3 cell viability; assay type: cell-based; settings: Mus musculus, BaF3, 72 h, read-out: IC50 (average ± SD)
[3] = tested on: Ba/F3 cells HER2 A775_G776insYVMA; assay: Ba/F3 cell viability; assay type: cell-based; settings: Mus musculus, BaF3, 72 h, read-out: IC50 (average ± SD)
[4] = tested on: Ba/F3 cells HER2 P780_Y781insGSP; assay: Ba/F3 cell viability; assay type: cell-based; settings: Mus musculus, BaF3, 72 h, read-out: IC50 (average ± SD)
[5] = tested on: Ba/F3 cells HER2 G776delinsVC; assay: Ba/F3 cell viability; assay type: cell-based; settings: Mus musculus, BaF3, 72 h, read-out: IC50 (average ± SD)
[6] = tested on: Ba/F3 cells HER2 M774delinsWLV; assay: Ba/F3 cell viability; assay type: cell-based; settings: Mus musculus, BaF3, 72 h, read-out: IC50 (average ± SD)
[7] = tested on: Ba/F3 cells HER2 S310F; assay: Ba/F3 cell viability; assay type: cell-based; settings: Mus musculus, BaF3, 72 h, read-out: IC50 (average ± SD)
[8] = tested on: Ba/F3 cells HER2 L755S; assay: Ba/F3 cell viability; assay type: cell-based; settings: Mus musculus, BaF3, 72 h, read-out: IC50 (average ± SD)
[9] = tested on: Ba/F3 cells HER2 V777L; assay: Ba/F3 cell viability; assay type: cell-based; settings: Mus musculus, BaF3, 72 h, read-out: IC50 (average ± SD)
[10] = tested on: Ba/F3 cells HER2 V862I; assay: Ba/F3 cell viability; assay type: cell-based; settings: Mus musculus, BaF3, 72 h, read-out: IC50 (average ± SD)
[11] = tested on: Ba/F3 cells HER2 755_757LREdelinsRP; assay: Ba/F3 cell viability; assay type: cell-based; settings: Mus musculus, BaF3, 72 h, read-out: IC50 (average ± SD)
[12] = tested on: Ba/F3 cells HER2 amplification; assay: Ba/F3 cell viability; assay type: cell-based; settings: Mus musculus, BaF3, 72 h, read-out: IC50 (average ± SD)
[13] = tested on: WT EGFR vs all HER2 mutants Ba/F3 cells; assay: Selectivity index from Ba/F3 IC50 ratios; assay type: cell-based; settings: average over HER2 mutants
[14] = tested on: MCF7; assay: Cancer cell viability; assay type: cell-based, human; settings: Homo sapiens, MCF7, 72 h, read-out: IC50 (average ± SD)
[15] = tested on: H1781; assay: Cancer cell viability; assay type: cell-based, human; settings: Homo sapiens, NCI-H1781, 72 h, read-out: IC50 (average ± SD)
[16] = tested on: H1819; assay: Cancer cell viability; assay type: cell-based; settings: Homo sapiens, NCI-H1819, 72 h, read-out: IC50 (average ± SD)
[17] = tested on: Calu-3; assay: Cancer cell viability; assay type: cell-based; settings: Homo sapiens, Calu-3, 72 h, read-out: IC50 (average ± SD)
[18] = tested on: DFCI 429; assay: Patient-derived cancer cell viability; assay type: cell-based, human; settings: Homo sapiens, 72 h, read-out: IC50 (average ± SD)
[19] = tested on: BT-474; assay: Cancer cell viability; assay type: cell-based, human; settings: Homo sapiens, BT-474, 72 h, read-out: IC50 (average ± SD)
[20] = tested on: SKBR3; assay: Cancer cell viability; assay type: cell-based, human; settings: Homo sapiens, SK-BR-3, 72 h, read-out: IC50 (average ± SD)
[21] = tested on: NCI-N87; assay: Cancer cell viability; assay type: cell-based, human; settings: Homo sapiens, NCI-N87, 72 h, read-out: IC50 (average ± SD)
[22] = tested on: Calu-3 tumors; assay: Calu-3 xenograft efficacy; assay type: in vivo; settings: Calu-3 in NCr nude mice, oral, 39 days; JBJ-08-178-01 at 50 mg/kg BID
[23] = tested on: A-431; assay: Cancer cell viability; assay type: cell-based, human; settings: read-out: IC50 (average ± SD); A-431, epidermoid, EGFR amp, 72 h

COc1cc2ncnc(Nc3ccc(F)c(Cl)c3)c2cc1NC(=O)/C=C/CN1CCCCC1 [dacomitinib]
overall response rate ([1]; phase II trial, patients with lung cancer harboring HER2 exon 20 mutations ref 34): 12%

Cc1cc(Nc2ncnc3ccc(NC4=NC(C)(C)CO4)cc23)ccc1Oc1ccn2ncnc2c1 [tucatinib]
IC50 [2]: 5180 ± 2520 nM | IC50 [3]: 269 ± 88.1 nM | IC50 [4]: 131 ± 37.3 nM | IC50 [5]: 97.8 ± 43.3 nM | IC50 [6]: 683 ± 288 nM | IC50 [7]: 371 ± 168 nM | IC50 [8]: 2090 ± 981 nM | IC50 [9]: 7.2 ± 0.57 nM | IC50 [10]: 1940 ± 1110 nM | IC50 [11]: 102 ± 23.6 nM | IC50 [12]: 126 ± 81.8 nM | Selectivity index (IC50 ratio = WT EGFR ÷ all HER2 mutants) [13]: 8.91 | IC50 [14]: 11300 nM | IC50 [15]: 3910 nM | IC50 [16]: 521 ± 551 nM | IC50 [17]: 1900 nM | IC50 [18]: 2790 nM | IC50 [19]: 1730 nM | IC50 [20]: 840 ± 918 nM | IC50 [21]: 16.2 ± 2.4 nM | tumor growth [22]: less efficacious than other covalent inhibitors

C=CC(=O)N1CCC(Oc2cc3c(Nc4ccc(Cl)c(Cl)c4F)ncnc3cc2OC)CC1 [poziotinib]
IC50 [2]: 1.41 ± 0.56 nM | IC50 [3]: 1.05 ± 0.67 nM | IC50 [4]: 1.28 ± 1.12 nM | IC50 [5]: 1.17 ± 0.86 nM | IC50 [6]: 3.45 ± 2.45 nM | IC50 [7]: 73.5 ± 41.1 nM | IC50 [8]: 523 ± 440 nM | IC50 [9]: 2.43 ± 0.77 nM | IC50 [10]: 29.3 ± 43 nM | IC50 [11]: 0.95 ± 0.94 nM | IC50 [12]: 1.08 ± 1.04 nM | IC50 [14]: 5940 nM | IC50 [23]: 59.9 ± 46.1 nM | IC50 [15]: 197 ± 147 nM | IC50 [16]: 75.5 ± 28.8 nM | IC50 [17]: 4.7 ± 2 nM | IC50 [18]: 744 ± 747 nM | IC50 [19]: 368 ± 414 nM | IC50 [20]: 929 nM | IC50 [21]: 0.7 nM

CCOc1cc2ncc(C#N)c(Nc3ccc(OCc4ccccn4)c(Cl)c3)c2cc1NC(=O)/C=C/CN(C)C [neratinib]
IC50 [2]: 13.5 ± 6.52 nM | IC50 [3]: 5.78 ± 2.09 nM | IC50 [4]: 4.96 ± 2.31 nM | IC50 [5]: 7.4 ± 4.64 nM | IC50 [6]: 16 ± 11.7 nM | IC50 [7]: 49.1 ± 64 nM | IC50 [8]: 112 ± 69.7 nM | IC50 [9]: 2.66 ± 0.48 nM | IC50 [10]: 8.64 ± 3.81 nM | IC50 [11]: 5.41 ± 4.54 nM | IC50 [12]: 5.64 ± 3.72 nM | IC50 [14]: 1280 nM | IC50 [15]: 296 ± 331 nM | IC50 [16]: 50.8 ± 14.1 nM | IC50 [17]: 57.9 ± 39.6 nM | IC50 [18]: 51.9 ± 45.8 nM | IC50 [19]: 48 ± 10 nM | IC50 [20]: 68.4 ± 65.5 nM | IC50 [21]: 1.1 ± 0.1 nM | patients with objective response ([1]; patients with HER2 mutant NSCLC, clinical trial ref 35): one out of 26
